Reference: ChEMBL document CHEMBL1201862, “PubChem BioAssay data set” (2004)
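Five concentrations, 48 hours, 96-well plates. Here, GI50 denotes the concentration required for 50% inhibition of growth.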 The source made the active and inactive calls. No stated cut-off is given here; in the data, active = GI50 up to about 1.1 µM and inactive = higher.

Columns and labels:
Assay in all cases: growth of human tumour cells (NCI), 48 h
[1] = system: MDA-N
[2] = system: Hs-578T
[3] = system: T47D
[4] = system: LXFL 529
[5] = system: HOP-18
[6] = system: DMS-273
[7] = system: KM-20L2
[8] = system: SNB-78

Structure (SMILES) | GI50 [1] | GI50 [2] | GI50 [3] | GI50 [4] | GI50 [5] | GI50 [6] | GI50 [7] | GI50 [8]
CCCCCCCC/C=C\CCCCCCC(F)C(=O)O (centres undefined) | > 12.5 µM (inactive) | > 12.5 µM (inactive) | > 12.5 µM (inactive) |  |  |  |  | 
CC(C)(C)/C(=N\Nc1nc2ccccc2[nH]1)c1ccccn1 | > 100 µM (inactive) | > 100 µM (inactive) | 21 µM (inactive) |  |  |  |  | 
CC[C@@]1(C)CCC2c3ccc(O)cc3CC[C@H]2C1C (some centres undefined) | 13.1 µM (inactive) | 18.8 µM (inactive) | 18.1 µM (inactive) |  |  |  |  | 
Cc1nnc2n1-c1ccccc1-c1[nH]c3ccccc3c1C2 | 61.1 µM (inactive) | > 100 µM (inactive) | > 100 µM (inactive) |  |  |  |  | 
COc1ccc2c(O)c(S(=O)(=O)c3ccc(C)cc3)c(=O)oc2c1OC | > 100 µM (inactive) | > 100 µM (inactive) | > 100 µM (inactive) |  |  |  |  | 
N#C/C(=C\c1cn(Cc2ccccc2)c2ccccc12)c1nn(-c2ccccc2)c(N)c1C#N | 23.2 µM (inactive) | 25.6 µM (inactive) | 1.33 µM (inactive) |  |  |  |  | 
Nc1ncnc2c1ncn2C1C=CC(COS(N)(=O)=O)C1 (centres undefined) | 22.5 µM (inactive) | 15.6 µM (inactive) | 8.81 µM (inactive) |  |  |  |  | 
CS(=O)(=O)CCC1CCC(=O)O1 (centres undefined) |  | 49 µM (inactive) | > 100 µM (inactive) |  |  |  |  | 
c1ccc(Cc2cccc3cc(-c4ccc(-c5ccccc5)cc4)[nH]c23)cc1 | > 100 µM (inactive) | 14.7 µM (inactive) | > 100 µM (inactive) |  |  |  |  | 
S=C(/N=c1\sc(NCc2ccccc2)nc2sc3c(c12)CCN(N1CCc2c(sc4nc(NCc5ccccc5)s/c(=N\C(=S)NCc5ccccc5)c24)C1)C3)NCc1ccccc1 | 42.5 µM (inactive) | 54.3 µM (inactive) | 21.2 µM (inactive) |  |  |  |  | 
Nc1ncnc2ccc(Sc3ccc4ncnc(N)c4c3)cc12 |  | > 100 µM (inactive) | > 100 µM (inactive) |  |  |  |  | 
CCCN1CN(C(C(=O)N[C@@H]2C(=O)N3C2SC(C)(C)C3C(=O)O)c2ccc(O)cc2)CSC1=S (some centres undefined) |  |  |  | 61.4 µM (inactive) | > 100 µM (inactive) | > 100 µM (inactive) | > 100 µM (inactive) | 
O=CNNC(=O)Nc1cccc2ccccc12 |  | > 100 µM (inactive) | > 100 µM (inactive) |  |  |  |  | 
N/C1=C/C(=O)NC(=O)c2c(c3ccccc3oc2=O)C1 | > 100 µM (inactive) | > 100 µM (inactive) | > 100 µM (inactive) |  |  |  |  | 
CC(=O)Nc1ccc2c(c1)[nH]c(=O)c1cc(Cl)ccc12 |  | 94 µM (inactive) | 57.9 µM (inactive) |  |  |  |  | 
C=C(C)CN(CC#N)CC(=C)C | > 100 µM (inactive) | 83.2 µM (inactive) | > 100 µM (inactive) |  |  |  |  | 
O=C1/C(=C/c2ccccc2)CN(C(=O)OCC(Cl)(Cl)Cl)C/C1=C\c1ccccc1 |  |  |  | 1.78 µM (inactive) | 3.57 µM (inactive) | 1.5 µM (inactive) | 2.44 µM (inactive) | 1.34 µM (inactive)
OCc1ccccc1O[C@H]1O[C@H](CO)[C@@H](O)[C@H](O)[C@H]1O | > 100 µM (inactive) | > 100 µM (inactive) | > 100 µM (inactive) |  |  |  |  | 
COc1ccc(N2C(=O)/C(=C\c3cccc(Oc4ccccc4)c3)S(=O)(=O)C2c2ccccc2)cc1 (centres undefined) | 19.1 µM (inactive) |  | 35.6 µM (inactive) |  |  |  |  | 
NC(=O)CN1CC(C2=C(O)CN(CC(N)=O)C2=O)=CC1=O |  | > 100 µM (inactive) | > 100 µM (inactive) |  |  |  |  | 
COC1CC(n2cnc3c(N)ncnc32)OC1CO (centres undefined) |  |  |  | > 100 µM (inactive) |  | > 100 µM (inactive) | > 100 µM (inactive) | 
Clc1ccccc1C1=NN(c2ccccc2)C2c3cc(Br)ccc3OCC12 (centres undefined) |  |  |  | > 100 µM (inactive) | > 100 µM (inactive) | > 100 µM (inactive) | > 100 µM (inactive) | > 100 µM (inactive)
CCC1c2[nH]c3ccccc3c2C[C@H]2C(=O)NC(Cc3ccccc3)C(=O)N12 (some centres undefined) | 25.8 µM (inactive) | 12.4 µM (inactive) | 22 µM (inactive) |  |  |  |  | 
CC(C)CC1C(=O)NCCC(NC(=O)C(N)Cc2ccc(O)cc2)C(=O)NC(Cc2ccccc2)C(=O)NC(Cc2ccccc2)NC1=O (centres undefined) | > 100 µM (inactive) | 0.885 µM (active) | > 100 µM (inactive) |  |  |  |  | 
O=C(CN1C(=O)c2ccccc2C1=O)C(O)CN1C(=O)c2ccccc2C1=O (centres undefined) | > 100 µM (inactive) | 34.7 µM (inactive) | 93.5 µM (inactive) |  |  |  |  | 
O=C(CSC1=NC(=O)C2(NN1)c1ccccc1-c1ccccc12)NC(=S)Nc1ccccc1 | > 10 µM (inactive) |  | 2.34 µM (inactive) |  |  |  |  | 
COC(=O)/C=C(/C(=O)OC)c1c(C)cc2c(C)cc(C)cc(C)c1-2 | 2.4 µM (inactive) | 11 µM (inactive) | 44.1 µM (inactive) |  |  |  |  | 
O=CC(NC(=O)N(CCCl)N=O)C(O)C(O)C(O)CO (centres undefined) | 312 µM (inactive) | > 955 µM (inactive) | 679 µM (inactive) |  | > 1250 µM (inactive) | 1000 µM (inactive) | > 1250 µM (inactive) | 
Cc1cc(N(CCC#N)CCC#N)ccc1/C=C(\NC(=O)/C=C/c1ccccc1)C(=O)N=[N+]=[N-] |  |  |  | > 100 µM (inactive) |  | > 100 µM (inactive) | > 100 µM (inactive) | 44.4 µM (inactive)
